Assay results taken from patent publication US9828379B2 (priority 2013, dated 2017).

Key:
Assay in all cases: In vitro competitive activity-based protein profiling (Table 2, % inhibition at 1 μM)
Assay type in all cases: biochemical
ABHD6 = molecular target: T1, ABHD6 (Mus musculus, UniProt Q8R2Y0); conditions: read-out: % Inhibition at 1 μM ABHD6
T1 sequence (Q8R2Y0 1-336): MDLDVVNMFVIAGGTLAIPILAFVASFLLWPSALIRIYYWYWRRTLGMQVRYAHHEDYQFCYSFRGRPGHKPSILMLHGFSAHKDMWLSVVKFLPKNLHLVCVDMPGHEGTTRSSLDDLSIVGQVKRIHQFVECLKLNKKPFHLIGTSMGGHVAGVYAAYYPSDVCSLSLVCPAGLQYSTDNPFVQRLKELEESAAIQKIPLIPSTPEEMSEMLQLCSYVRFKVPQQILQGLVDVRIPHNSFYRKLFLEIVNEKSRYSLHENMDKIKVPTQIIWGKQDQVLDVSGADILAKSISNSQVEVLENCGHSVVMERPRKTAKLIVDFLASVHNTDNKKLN
Procedure: (§1) After 30 min, FP—Rh (1.0 μL, 50 μM in DMSO) was added and the mixture was incubated for another 30 min at 37° C. Reactions were quenched with SDS loading buffer (50 μL-4×) and run on SDS-PAGE. Following gel imaging, serine hydrolase activity was determined by measuring fluorescent intensity of gel bands corresponding to MAGL, ABHD6 and FAAH using ImageJ 1.43 u software.
(§2) hMAGL was expressed in HEK293T cells according to previously reported methods (see Niphakis, Long, and Blankman, J. L., et al. (2007) Chem. Biol. 14:1347-1356). Cell lysates were diluted with mock proteomes for use in competitive ABPP experiments.

FAAH = molecular target: T2, FAAH (Mus musculus, UniProt O08914); conditions: read-out: % Inhibition at 1 μM FAAH
T2 sequence (O08914 1-579): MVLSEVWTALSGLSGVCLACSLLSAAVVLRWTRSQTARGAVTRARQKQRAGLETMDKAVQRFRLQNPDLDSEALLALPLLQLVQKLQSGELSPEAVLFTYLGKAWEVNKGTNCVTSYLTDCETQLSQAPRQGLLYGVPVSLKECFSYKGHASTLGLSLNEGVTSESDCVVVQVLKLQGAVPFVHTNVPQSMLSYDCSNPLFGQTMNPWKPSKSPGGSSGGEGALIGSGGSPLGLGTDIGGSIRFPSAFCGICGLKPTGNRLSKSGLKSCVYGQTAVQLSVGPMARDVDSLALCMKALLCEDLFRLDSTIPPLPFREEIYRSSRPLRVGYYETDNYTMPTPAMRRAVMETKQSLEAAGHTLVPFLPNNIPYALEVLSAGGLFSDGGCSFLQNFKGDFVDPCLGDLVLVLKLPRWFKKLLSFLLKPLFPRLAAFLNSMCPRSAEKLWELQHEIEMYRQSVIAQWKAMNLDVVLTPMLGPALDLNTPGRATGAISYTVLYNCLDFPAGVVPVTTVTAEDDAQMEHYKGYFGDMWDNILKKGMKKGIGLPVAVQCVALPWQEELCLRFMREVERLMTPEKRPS
Procedure: as §1, §2

MAGL = molecular target: T3, MAGL (Mus musculus, UniProt O35678); conditions: read-out: % Inhibition at 1 μM MAGL
T3 sequence (O35678 1-303): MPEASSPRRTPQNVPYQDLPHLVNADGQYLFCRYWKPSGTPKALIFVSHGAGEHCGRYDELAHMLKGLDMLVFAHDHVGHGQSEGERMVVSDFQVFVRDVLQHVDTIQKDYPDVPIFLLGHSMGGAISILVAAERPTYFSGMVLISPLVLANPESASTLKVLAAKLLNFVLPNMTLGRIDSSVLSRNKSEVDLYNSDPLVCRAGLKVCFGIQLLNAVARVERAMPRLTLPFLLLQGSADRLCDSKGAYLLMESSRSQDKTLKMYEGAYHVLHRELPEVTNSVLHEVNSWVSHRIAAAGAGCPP
Procedure: After 30 min, FP—Rh (1.0 μL, 50 μM in DMSO) was added and the mixture was incubated for another 30 min at 37° C. Reactions were quenched with SDS loading buffer (50 μL-4×) and run on SDS-PAGE.
Cell lysates were diluted with mock proteomes for use in competitive ABPP experiments.

## O=C(ON1C(=O)CCC1=O)N1CC2CN(Cc3ccc(Cl)cc3N3CCC4(CCNC4=O)CC3)CC2C1 (stereo not drawn) [Example 112, 2,5-Dioxopyrrolidin-1-yl 5-[(4-chloro-2-[1-oxo-2,8-diazaspiro[4.5]decan-8-yl]phenyl)methyl]-octahydropyrrolo[3,4-c]pyrrole-2-carboxylate]
ABHD6
  inhibition at 1 µM: < 25%
FAAH
  inhibition at 1 µM: < 25%
MAGL
  inhibition at 1 µM: 25 to 75%

## CCN1CCN(c2cccc(CN3CC4CN(C(=O)ON5C(=O)CCC5=O)CC4C3)c2C)CC1 (stereo not drawn) [Example 146]
ABHD6
  inhibition at 1 µM: < 25%
FAAH
  inhibition at 1 µM: < 25%
MAGL
  inhibition at 1 µM: 25 to 75%

## CC(=O)N1CCN(c2cc(F)ccc2CN2CC3CN(C(=O)ON4C(=O)CCC4=O)CC3C2)CC1 (stereo not drawn) [Example 92, 2,5-Dioxopyrrolidin-1-yl 5-[[2-(4-acetylpiperazin-1-yl)-4-fluorophenyl]methyl]-octahydropyrrolo[3,4-c]pyrrole-2-carboxylate]
ABHD6
  inhibition at 1 µM: < 25%
FAAH
  inhibition at 1 µM: < 25%
MAGL
  inhibition at 1 µM: < 25%

## O=C(ON1C(=O)CCC1=O)N1CC2CN(Cc3ccc(Cl)cc3N3CCC3)CC2C1 (stereo not drawn) [Example 113, 2,5-Dioxopyrrolidin-1-yl 5-[[2-(azetidin-1-yl)-4-chlorophenyl]methyl]-octahydropyrrolo[3,4-c]pyrrole-2-carboxylate]
ABHD6
  inhibition at 1 µM: 25 to 75%
FAAH
  inhibition at 1 µM: < 25%
MAGL
  inhibition at 1 µM: > 75%

## CCn1cc(CN2CC3CN(C(=O)OC(C(F)(F)F)C(F)(F)F)CC3C2)c(C(=O)N2CCOCC2)n1 (stereo not drawn) [Example 76, 1,1,1,3,3,3-Hexafluoropropan-2-yl 5-((1-ethyl-3-(morpholine-4-carbonyl)-1H-pyrazol-4-yl)methyl)hexahydropyrrolo[3,4-c]pyrrole-2(1H)-carboxylate]
ABHD6
  inhibition at 1 µM: < 25%
FAAH
  inhibition at 1 µM: < 25%
MAGL
  inhibition at 1 µM: 25 to 75%

## O=C(ON1C(=O)CCC1=O)N1CC2CN(Cc3ccc(Cl)cc3N3CCC(C(=O)N4CCCC4)CC3)CC2C1 (stereo not drawn) [Example 111, 2,5-Dioxopyrrolidin-1-yl 5-[(4-chloro-2-[4-[(pyrrolidin-1-yl)carbonyl]piperidin-1-yl]phenyl)methyl]-octahydropyrrolo[3,4-c]pyrrole-2-carboxylate]
ABHD6
  inhibition at 1 µM: < 25%
FAAH
  inhibition at 1 µM: < 25%
MAGL
  inhibition at 1 µM: 25 to 75%

## CC(C)n1cc(CN2CC3CN(C(=O)ON4C(=O)CCC4=O)CC3C2)c(-c2ccccc2Cl)n1 (stereo not drawn) [Example 118, 2,5-Dioxopyrrolidin-1-yl 5-[[3-(2-chlorophenyl)-1-(propan-2-yl)-1H-pyrazol-4-yl]methyl]-octahydropyrrolo[3,4-c]pyrrole-2-carboxylate]
ABHD6
  inhibition at 1 µM: 25 to 75%
FAAH
  inhibition at 1 µM: < 25%
MAGL
  inhibition at 1 µM: 25 to 75%

## O=C(OC(C(F)(F)F)C(F)(F)F)N1CC2CN(C(c3ccc(Cl)cc3)c3ccc(Cl)cc3)CC2C1 (stereo not drawn) [Example 8, 1,1,1,3,3,3-Hexafluoropropan-2-yl 5-[bis(4-chlorophenyl)methyl]-octahydropyrrolo[3,4-c]pyrrole-2-carboxylate]
ABHD6
  inhibition at 1 µM: 25 to 75%
FAAH
  inhibition at 1 µM: < 25%
MAGL
  inhibition at 1 µM: 25 to 75%

## Cc1cc(CN2CC3CN(C(=O)ON4C(=O)CCC4=O)CC3C2)n(C(C)C)n1 (stereo not drawn) [Example 121, 2,5-Dioxopyrrolidin-1-yl 5-[[3-methyl-1-(propan-2-yl)-1H-pyrazol-5-yl]methyl]-octahydropyrrolo[3,4-c]pyrrole-2-carboxylate]
ABHD6
  inhibition at 1 µM: < 25%
FAAH
  inhibition at 1 µM: < 25%
MAGL
  inhibition at 1 µM: < 25%

## O=C(ON1C(=O)CCC1=O)N1CC2CN(Cc3ccc(Cl)cc3N3CCOCC3)CC2C1 (stereo not drawn) [Example 93, 2,5-Dioxopyrrolidin-1-yl 5-[[4-chloro-2-(morpholin-4-yl)phenyl]methyl]-octahydropyrrolo[3,4-c]pyrrole-2-carboxylate]
ABHD6
  inhibition at 1 µM: 25 to 75%
FAAH
  inhibition at 1 µM: < 25%
MAGL
  inhibition at 1 µM: 25 to 75%

## Cn1nc(-c2cccc(F)c2)cc1CN1CC2CN(C(=O)ON3C(=O)CCC3=O)CC2C1 (stereo not drawn) [Example 198, 2,5-dioxopyrrolidin-1-yl 5-((3-(3-fluorophenyl)-1-methyl-1H-pyrazol-5-yl)methyl)hexahydropyrrolo[3,4-c]pyrrole-2(1H)-carboxylate]
ABHD6
  inhibition at 1 µM: < 25%
FAAH
  inhibition at 1 µM: < 25%
MAGL
  inhibition at 1 µM: < 25%

## CS(=O)(=O)N1CCN(c2cc(Cl)ccc2CN2CC3CN(C(=O)ON4C(=O)CCC4=O)CC3C2)CC1 (stereo not drawn) [Example 110, 2,5-Dioxopyrrolidin-1-yl 5-[[4-chloro-2-(4-methanesulfonylpiperazin-1-yl)phenyl]methyl]-octahydropyrrolo[3,4-c]pyrrole-2-carboxylate]
ABHD6
  inhibition at 1 µM: < 25%
FAAH
  inhibition at 1 µM: < 25%
MAGL
  inhibition at 1 µM: < 25%

## CC1COCCN1c1ccc(CN2CC3CN(C(=O)ON4C(=O)CCC4=O)CC3C2)c(F)c1 (stereo not drawn) [Example 100, 2,5-Dioxopyrrolidin-1-yl 5-[[2-fluoro-4-(3-methylmorpholin-4-yl)phenyl]methyl]-octahydropyrrolo[3,4-c]pyrrole-2-carboxylate]
ABHD6
  inhibition at 1 µM: < 25%
FAAH
  inhibition at 1 µM: < 25%
MAGL
  inhibition at 1 µM: 25 to 75%

## CC(C)c1cc(CN2CC3CN(C(=O)ON4C(=O)CCC4=O)CC3C2)n(C2CCOCC2)n1 (stereo not drawn) [Example 124, 2,5-Dioxopyrrolidin-1-yl 5-[[1-(oxan-4-yl)-3-(propan-2-yl)-1H-pyrazol-5-yl]methyl]-octahydropyrrolo[3,4-c]pyrrole-2-carboxylate]
ABHD6
  inhibition at 1 µM: < 25%
FAAH
  inhibition at 1 µM: < 25%
MAGL
  inhibition at 1 µM: 25 to 75%

## O=C(ON1C(=O)CCC1=O)N1CC2CN(Cc3ccc(Cl)cc3N3CCn4ncnc4C3)CC2C1 (stereo not drawn) [Example 108, 2,5-Dioxopyrrolidin-1-yl 5-(4-chloro-2-(5,6-dihydro-[1,2,4]triazolo[1,5-a]pyrazin-7(8H)-yl)benzyl)-hexahydropyrrolo[3,4-c]pyrrole-2(1H)-carboxylate]
ABHD6
  inhibition at 1 µM: < 25%
FAAH
  inhibition at 1 µM: < 25%
MAGL
  inhibition at 1 µM: < 25%

## Cn1nc(-c2ccccc2)cc1CN1CC2CN(C(=O)ON3C(=O)CCC3=O)CC2C1 (stereo not drawn) [Example 197, 2,5-dioxopyrrolidin-1-yl 5-((1-methyl-3-phenyl-1H-pyrazol-5-yl)methyl)hexahydropyrrolo[3,4-c]pyrrole-2(1H)-carboxylate]
ABHD6
  inhibition at 1 µM: < 25%
FAAH
  inhibition at 1 µM: < 25%
MAGL
  inhibition at 1 µM: < 25%

## Cc1c(CN2CC3CN(C(=O)ON4C(=O)CCC4=O)CC3C2)cccc1N1CCN(S(C)(=O)=O)CC1 (stereo not drawn) [Example 141, 2,5-dioxopyrrolidin-1-yl 5-[[3-(4-methanesulfonylpiperazin-1-yl)-2-methylphenyl]methyl]-octahydropyrrolo[3,4-c]pyrrole-2-carboxylate]
ABHD6
  inhibition at 1 µM: < 25%
FAAH
  inhibition at 1 µM: < 25%
MAGL
  inhibition at 1 µM: 25 to 75%

## O=C(OC(C(F)(F)F)C(F)(F)F)N1CC2CN(Cc3ccc(F)cc3N3CCOCC3)CC2C1 (stereo not drawn) [Example 14, 1,1,1,3,3,3-Hexafluoropropan-2-yl 5-[[4-fluoro-2-(morpholin-4-yl)phenyl]methyl]-octahydropyrrolo[3,4-c]pyrrole-2-carboxylate]
ABHD6
  inhibition at 1 µM: < 25%
FAAH
  inhibition at 1 µM: 25 to 75%
MAGL
  inhibition at 1 µM: > 75%

## CC(C)n1cc(CN2CC3CN(C(=O)ON4C(=O)CCC4=O)CC3C2)c(-c2ccccc2)n1 (stereo not drawn) [Example 117, 2,5-Dioxopyrrolidin-1-yl 5-[[3-phenyl-1-(propan-2-yl)-1H-pyrazol-4-yl]methyl]-octahydropyrrolo[3,4-c]pyrrole-2-carboxylate]
ABHD6
  inhibition at 1 µM: 25 to 75%
FAAH
  inhibition at 1 µM: < 25%
MAGL
  inhibition at 1 µM: 25 to 75%
